Assays:
[1] = Transwell assay for membrane efflux and permeability; format: in vitro ADME, Canine; settings: dog; MDCK-BCRP or MDCKII-MDR1 transwell, test compound 1 μM, 2 hours at 37° C.
From the text: Compounds described herein were screened for cell membrane permeability and efflux in a transwell assay using Madin-Darby Canine Kidney (MDCK) cells expressing Breast Cancer Resistance Protein (BCRP) or subclone MDCKII cells expressing Multidrug Resistance Protein 1 (MDR1).
MDCK-BCRP or MDCKII-MDR1 Cells: The Netherlands Cancer Institute, High Glucose Dulbecco's Modified Eagle's Medium (DMEM): Gibco/Thermo Fisher Scientific, Fetal Bovine Serum (FBS): Coming, Hank's Balanced Salt Solution (HBSS) and Trypsin/EDTA: Gibco/Thermo Fisher Scientific, HTS Transwell-96 Well Permeable Supports: Coming Corporation, Millicell Epithelial Volt-Ohm: Millipore, Cellometer® Vision: Nexcelom Bioscience LLC, Infinite 200 PRO microplate reader: Tecan, MTS2/4 orbital shaker: IKA Labortechnik, HEPES/Penicillin/Streptomycin: Solarbio.
MDCK-BCRP or MDCKII-MDR1 cells were seeded to each of the wells of the transwell plate at a density of 1.6×10^6 cells/mL and the plate was incubated for 4-8 days with medium changes every two days. To perform the drug transport assay, cell monolayers were first washed three times with pre-warmed HBSS and then incubated with gentle shaking (150 rpm) for 30 min at 37° C. Stock solutions of test compounds (e.g., exemplary compounds of Formulas (I), (II), and (III)) and control compounds (e.g., metoprolol, prazosin, and/or imatinib) were prepared in DMSO and adjusted to a working solution using HBSS. The final concentration of test compounds was 1 μM with DMSO; 0.5%. The plates were incubated at 37° C. for 2 hours.

HTT = assay: HiBiT protein abundance assay, HTT; format: cell-based, human; settings: Homo sapiens, K562, 24 h, modified K562 cells
Procedure, shortened: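 Protein abundance measured by Nano-Glo HiBiT lytic luminescence after 24 h compound exposure of modified K562 lines, 10000 cells/well, top final dose 10 μM in 3-fold steps. Four-parameter fit of control-normalised response gives concentration reducing abundance to 50% of untreated.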

SMILES: Fc1cc(-c2ccc(OC3CC4CC(F)(F)C(C3)N4)nn2)c2[nH]ncc2c1-c1cn[nH]c1 (centres unmarked) [Compound 313, 7-[6-({6,6-difluoro-8-azabicyclo[3.2.1]octan-3-yl}oxy)pyridazin-3-yl]-5-fluoro-4-(1H-pyrazol-4-yl)-1H-indazole]
- efflux ratio at 2 h, 1 μM [1]: < 1.5
- IC50 (HTT; Table 13A): 0.1 to 1 µM

SMILES: Fc1cc(-c2ccc(O[C@@H]3C[C@H]4CC[C@@H](C3)N4)nn2)c2sncc2c1-c1cn[nH]c1 [Compound 327]
- Papp at 2 h, 1 μM [1]: 20 to 60 nm/s
- efflux ratio at 2 h, 1 μM [1]: > 5
- IC50 (HTT; Table 13A): < 0.1 µM

SMILES: COc1cc(-c2ccc(-c3ccc(N(C)C4CC(C)(C)NC(C)(C)C4)nn3)c3scnc23)cnn1 [Compound 330]
- Papp at 2 h, 1 μM [1]: 20 to 60 nm/s
- efflux ratio at 2 h, 1 μM [1]: > 5
- IC50 (HTT; Table 13A): < 0.1 µM

SMILES: CC(C)(C)NC1CCN(c2ccc(-c3ccc(-c4cn[nH]c4)c4ncsc34)nn2)C1 (centres unmarked) [Compound 336]
- Papp at 2 h, 1 μM [1]: 20 to 60 nm/s
- efflux ratio at 2 h, 1 μM [1]: > 5
- IC50 (HTT; Table 13A): < 0.1 µM

SMILES: c1nc2c(-c3cn[nH]c3)ccc(-c3ccc(N4CCC(NC5CC5)C4)nn3)c2s1 (centres unmarked) [Compound 337]
- Papp at 2 h, 1 μM [1]: 20 to 60 nm/s
- efflux ratio at 2 h, 1 μM [1]: < 1.5
- IC50 (HTT; Table 13A): 1 to 10 µM

SMILES: Fc1cc(-c2ccc(N[C@@H]3C[C@H]4CC[C@@H](C3)N4)nn2)c2scnc2c1-c1cn[nH]c1 [Compound 339]
- Papp at 2 h, 1 μM [1]: < 20 nm/s
- efflux ratio at 2 h, 1 μM [1]: 1.5 to 5
- IC50 (HTT; Table 13A): < 0.1 µM

SMILES: Cc1ncc(-c2ccc(-c3ccc(O[C@@H]4C[C@H]5CC[C@@H](C4)N5)nn3)c3scnc23)s1 [Compound 348, 7-{6-[(exo)-8-azabicyclo[3.2.1]octan-3-yloxy]pyridazin-3-yl}-4-(2-methyl-1,3-thiazol-5-yl)-1,3-benzothiazole]
- Papp at 2 h, 1 μM [1]: < 20 nm/s
- efflux ratio at 2 h, 1 μM [1]: > 5
- IC50 (HTT; Table 13A): < 0.1 µM

SMILES: COc1cc(-c2ccc(-c3ccc(O[C@@H]4C[C@H]5CC[C@@H](C4)N5)nn3)c3scnc23)cnn1 [Compound 362]
- Papp at 2 h, 1 μM [1]: 20 to 60 nm/s
- efflux ratio at 2 h, 1 μM [1]: > 5
- IC50 (HTT; Table 13A): < 0.1 µM

SMILES: Fc1ccn(-c2ccc(-c3ccc(O[C@@H]4C[C@H]5CC[C@@H](C4)N5)nn3)c3scnc23)n1 [Compound 363]
- Papp at 2 h, 1 μM [1]: < 20 nm/s
- efflux ratio at 2 h, 1 μM [1]: 1.5 to 5
- IC50 (HTT; Table 13A): < 0.1 µM

SMILES: CN(c1ncc(-c2ccc(-n3cccn3)c3[nH]ncc23)nn1)[C@@H]1C[C@H]2CCC[C@@H](C1)N2 [Compound 551]
- Papp at 2 h, 1 μM [1]: 20 to 60 nm/s
- efflux ratio at 2 h, 1 μM [1]: > 5
- IC50 (HTT; Table 13A): < 0.1 µM

SMILES: c1cnn(-c2ccc(-c3cnc(N[C@@H]4C[C@H]5CC[C@@H](C4)N5)nn3)c3cn[nH]c23)c1 [Compound 556]
- Papp at 2 h, 1 μM [1]: 20 to 60 nm/s
- efflux ratio at 2 h, 1 μM [1]: > 5
- IC50 (HTT; Table 13A): < 0.1 µM

SMILES: c1cnn(-c2ccc(-c3cnc(N[C@@H]4C[C@H]5CCC[C@@H](C4)N5)nn3)c3cn[nH]c23)c1 [Compound 561]
- Papp at 2 h, 1 μM [1]: 20 to 60 nm/s
- efflux ratio at 2 h, 1 μM [1]: > 5
- IC50 (HTT; Table 13A): < 0.1 µM

SMILES: CC(C)(C)C1CN(c2ncc(-c3ccc(-n4cccn4)c4[nH]ncc34)nn2)CCN1 (centres unmarked) [Compound 572]
- Papp at 2 h, 1 μM [1]: < 20 nm/s
- efflux ratio at 2 h, 1 μM [1]: < 1.5
- IC50 (HTT; Table 13A): < 0.1 µM

SMILES: CN(c1ncc(-c2ccc(-n3cncn3)c3[nH]ncc23)nn1)[C@@H]1C[C@H]2CCC[C@@H](C1)N2 [Compound 574]
- Papp at 2 h, 1 μM [1]: < 20 nm/s
- efflux ratio at 2 h, 1 μM [1]: > 5
- IC50 (HTT; Table 13A): < 0.1 µM

SMILES: CN(c1ncc(-c2ccc(-n3ccnn3)c3[nH]ncc23)nn1)[C@@H]1C[C@H]2CCC[C@@H](C1)N2 [Compound 576]
- Papp at 2 h, 1 μM [1]: < 20 nm/s
- efflux ratio at 2 h, 1 μM [1]: > 5
- IC50 (HTT; Table 13A): < 0.1 µM

SMILES: Cc1ncc(-c2ccc(-c3cnc(N(C)[C@@H]4C[C@H]5CCC[C@@H](C4)N5)nn3)c3scnc23)s1 [Compound 578]
- Papp at 2 h, 1 μM [1]: < 20 nm/s
- efflux ratio at 2 h, 1 μM [1]: > 5
- IC50 (HTT; Table 13A): < 0.1 µM

SMILES: Cc1nc(-c2ccc(-c3cnc(N(C)[C@@H]4C[C@H]5CCC[C@@H](C4)N5)nn3)c3scnc23)cs1 [Compound 579]
- Papp at 2 h, 1 μM [1]: < 20 nm/s
- efflux ratio at 2 h, 1 μM [1]: > 5
- IC50 (HTT; Table 13A): 0.1 to 1 µM

SMILES: Cc1cc(-c2ccc(-c3cnc(N(C)[C@@H]4C[C@H]5CCC[C@@H](C4)N5)nn3)c3scnc23)sn1 [Compound 580]
- Papp at 2 h, 1 μM [1]: < 20 nm/s
- efflux ratio at 2 h, 1 μM [1]: > 5
- IC50 (HTT; Table 13A): < 0.1 µM

SMILES: CC(C)(C)[C@H]1CN(c2ncc(-c3ccc(-n4cccn4)c4[nH]ncc34)nn2)CCN1 [Compound 581]
- Papp at 2 h, 1 μM [1]: 20 to 60 nm/s
- efflux ratio at 2 h, 1 μM [1]: < 1.5
- IC50 (HTT; Table 13A): < 0.1 µM

SMILES: COc1nc(-c2ccc(N(C)[C@@H]3C[C@H]4CC[C@@H](C3)N4)nn2)ccc1-c1cn[nH]c1 [Compound 906]
- Papp at 2 h, 1 μM [1]: < 20 nm/s
- efflux ratio at 2 h, 1 μM [1]: > 5
- IC50 (HTT; Table 13B): < 0.1 µM

SMILES: CN(c1ccc(-c2ccc(-c3cn[nH]c3)cn2)nn1)[C@@H]1C[C@H]2CC[C@@H](C1)N2 [Compound 915]
- Papp at 2 h, 1 μM [1]: < 20 nm/s
- efflux ratio at 2 h, 1 μM [1]: < 1.5
- IC50 (HTT; Table 13B): 0.1 to 1 µM

SMILES: COc1nc(-c2ccc(OC3CC(C)(C)NC(C)(C)C3)nn2)ccc1-c1cn[nH]c1 [Compound 917]
- Papp at 2 h, 1 μM [1]: 20 to 60 nm/s
- efflux ratio at 2 h, 1 μM [1]: > 5
- IC50 (HTT; Table 13B): < 0.1 µM

SMILES: COc1nc(-c2ccc(OC3CC(C)(C)NC(C)(C)C3)nn2)ccc1-c1cnn(C)c1 [Compound 918]
- Papp at 2 h, 1 μM [1]: 20 to 60 nm/s
- efflux ratio at 2 h, 1 μM [1]: > 5
- IC50 (HTT; Table 13B): < 0.1 µM

SMILES: COc1nc(-c2ccc(N(C)C3CC(C)(C)NC(C)(C)C3)nn2)ccc1-c1cn[nH]c1 [Compound 919]
- Papp at 2 h, 1 μM [1]: < 20 nm/s
- efflux ratio at 2 h, 1 μM [1]: > 5
- IC50 (HTT; Table 13B): < 0.1 µM

SMILES: COc1nc(-c2ccc(N(C)C3CC(C)(C)NC(C)(C)C3)nn2)ccc1-c1cnn(C)c1 [Compound 920]
- Papp at 2 h, 1 μM [1]: 20 to 60 nm/s
- efflux ratio at 2 h, 1 μM [1]: > 5
- IC50 (HTT; Table 13B): < 0.1 µM

SMILES: CN(c1ccc(-c2ccc(-c3cn[nH]c3)c(F)n2)nn1)[C@@H]1C[C@H]2CC[C@@H](C1)N2 [Compound 922]
- Papp at 2 h, 1 μM [1]: < 20 nm/s
- efflux ratio at 2 h, 1 μM [1]: > 5
- IC50 (HTT; Table 13B): < 0.1 µM

SMILES: CN(c1ccc(-c2ccc(-c3cn[nH]c3)c(C#N)n2)nn1)[C@@H]1C[C@H]2CC[C@@H](C1)N2 [Compound 930]
- Papp at 2 h, 1 μM [1]: < 20 nm/s
- efflux ratio at 2 h, 1 μM [1]: > 5
- IC50 (HTT; Table 13B): < 0.1 µM

SMILES: COc1nc(-c2ccc(N(C)[C@@H]3C[C@H]4CC[C@@H](C3)N4)nn2)cc(F)c1-c1cn[nH]c1 [Compound 931]
- Papp at 2 h, 1 μM [1]: < 20 nm/s
- efflux ratio at 2 h, 1 μM [1]: > 5
- IC50 (HTT; Table 13B): < 0.1 µM

SMILES: CN(c1ccc(-c2ccc(-c3cn[nH]c3)c(OC3CC3)n2)nn1)[C@@H]1C[C@H]2CC[C@@H](C1)N2 [Compound 939]
- Papp at 2 h, 1 μM [1]: < 20 nm/s
- efflux ratio at 2 h, 1 μM [1]: > 5
- IC50 (HTT; Table 13B): < 0.1 µM

SMILES: COc1cc(-c2ccc(-c3ccc(N(C)[C@@H]4C[C@H]5CC[C@@H](C4)N5)nn3)nc2OC)ncn1 [Compound 954]
- Papp at 2 h, 1 μM [1]: < 20 nm/s
- efflux ratio at 2 h, 1 μM [1]: > 5
- IC50 (HTT; Table 13B): 0.1 to 1 µM

SMILES: CN(c1ccc(-c2ccc(-c3cn[nH]c3)c(OC(F)F)n2)nn1)[C@@H]1C[C@H]2CC[C@@H](C1)N2 [Compound 955]
- Papp at 2 h, 1 μM [1]: < 20 nm/s
- efflux ratio at 2 h, 1 μM [1]: > 5
- IC50 (HTT; Table 13B): < 0.1 µM

SMILES: COc1nc(-c2ccc(N3CCC(NC(C)(C)C)C3)nn2)ccc1-c1cn[nH]c1 (centres unmarked) [Compound 956]
- Papp at 2 h, 1 μM [1]: 20 to 60 nm/s
- efflux ratio at 2 h, 1 μM [1]: > 5
- IC50 (HTT; Table 13B): < 0.1 µM

SMILES: COc1nc(-c2ccc(N(C)[C@@H]3C[C@H]4CC[C@@H](C3)N4)nn2)ccc1-c1ccnc(O)c1 [Compound 961]
- Papp at 2 h, 1 μM [1]: < 20 nm/s
- efflux ratio at 2 h, 1 μM [1]: 1.5 to 5
- IC50 (HTT; Table 13B): 0.1 to 1 µM

SMILES: COc1nc(-c2ccc(O[C@@H]3C[C@H]4CC[C@@H](C3)N4)nn2)ccc1-c1cnc(C)s1 [Compound 962]
- Papp at 2 h, 1 μM [1]: 20 to 60 nm/s
- efflux ratio at 2 h, 1 μM [1]: 1.5 to 5
- IC50 (HTT; Table 13B): 0.1 to 1 µM
